Tests used:
[1] = molecular target: T1, human DGKζ (Homo sapiens (Human), UniProt Q13574); experiment: DGKζ assay (detergent/lipid micelle substrate); type: biochemical
Method in brief: (§1)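 Full-length human DGKζ (and DGKα), C-terminal His-tagged, Sf9-expressed, with phosphatidylserine/DAG micelles in 50 mM octyl glucoside; buffer 50 mM MOPS pH 7.5, 100 mM NaCl, 10 mM MgCl2, 1 μM CaCl2, 1 mM DTT.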

[2] = tested on: pre-activated CD4 T cells and Raji cells; experiment: Raji CD4 T Cell IL2 Assay; type: cell-based; settings: Homo sapiens, Raji
[3] = molecular target: T2, human DGKα (Homo sapiens (Human), UniProt P23743); experiment: biochemical; settings: detergent/lipid micelle substrate; read-out: DGKα IC50
T2 sequence (P23743 other isoform, or with tags, fused parts or gaps): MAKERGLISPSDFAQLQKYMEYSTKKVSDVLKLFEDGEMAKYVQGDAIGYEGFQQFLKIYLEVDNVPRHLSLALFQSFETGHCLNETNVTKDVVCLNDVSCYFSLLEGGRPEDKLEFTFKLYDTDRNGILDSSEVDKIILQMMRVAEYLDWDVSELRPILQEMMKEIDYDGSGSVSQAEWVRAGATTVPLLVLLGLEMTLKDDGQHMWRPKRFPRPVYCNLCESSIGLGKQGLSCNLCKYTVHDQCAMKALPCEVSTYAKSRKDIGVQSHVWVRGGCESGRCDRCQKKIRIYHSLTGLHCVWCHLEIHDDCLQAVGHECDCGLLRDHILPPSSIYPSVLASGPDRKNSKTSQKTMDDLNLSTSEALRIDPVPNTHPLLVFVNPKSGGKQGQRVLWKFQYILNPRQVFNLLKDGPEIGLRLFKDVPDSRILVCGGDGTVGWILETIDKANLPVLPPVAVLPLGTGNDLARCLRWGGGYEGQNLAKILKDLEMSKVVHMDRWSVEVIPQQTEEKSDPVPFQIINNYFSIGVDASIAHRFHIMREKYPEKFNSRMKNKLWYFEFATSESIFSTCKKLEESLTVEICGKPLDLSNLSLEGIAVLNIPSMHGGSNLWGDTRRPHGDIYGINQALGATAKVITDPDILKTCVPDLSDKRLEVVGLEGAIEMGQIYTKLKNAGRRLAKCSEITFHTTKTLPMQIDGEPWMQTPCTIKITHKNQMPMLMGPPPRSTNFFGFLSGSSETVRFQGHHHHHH
Method in brief: as §1

[4] = molecular target: T1, human DGKζ; experiment: DGKζ LIPGLO assay (extruded liposome substrate); type: biochemical
Protocol: (§2) The DGKα and DGKζ reactions were performed using either extruded liposome (DGKα and DGKζ LIPGLO assays) or detergent/lipid micelle substrate (DGKα and DGKζ assays). The reactions were carried out in 50 mM MOPS pH 7.5, 100 mM NaCl, 10 mM MgCl2, 1 μM CaCl2, and 1 mM DTT (assay buffer). The reactions using a detergent/lipid micelle substrate also contained 50 mM octyl B-D-glucopyranoside.
(§3) A 5 mL enzyme/substrate solution at 2× final reaction concentration was prepared by combining 2.5 mL 4× enzyme solution (20 nM DGKα or DGKζ (prepared as described below) in assay buffer) and 2.5 mL of either 4× liposome or 4× detergent/lipid micelle solution (compositions described below) and incubated at room temperature for 10 minutes. Next, 1 μL 2× enzyme/substrate solution was added to wells containing the test compound and reactions were initiated with the addition of 1 μL 300 uM ATP. The reactions were allowed to proceed for 1 hr, after which 2 μL Glo Reagent (Promega V9101) was added and incubated for 40 minutes. Next, 4 μL Kinase Detection Reagent was added and incubated for 30 minutes. Luminescence was recorded using an EnVision microplate reader. […] The compounds were evaluated at 11 concentrations to determine IC50.
(§4) The PC, DAG, and PS were dissolved in chloroform, combined, and dried in vacuo to a thin film. The lipids were hydrated to 20 mM in 50 mM MOPS pH 7.5, 100 mM NaCl, 5 mM MgCl2, and were freeze-thawed five times. The lipid suspension was extruded through a 100 nm polycarbonate filter eleven times. […] The liposome preparation was stored at 4° C. for as long as four weeks.
Baculovirus amplification was achieved using infected Sf9 cells at 1:1500 virus/cell ratios, and grown for 65 hours at 27° C. post-transfection.
(§5) The expression scale up for each protein was carried out in the Cellbag 50 L WAVE-Bioreactor System 20/50 from GE Healthcare Bioscience. 12 L of 2×10^6 cells/mL Sf9 cells (Expression System, Davis, Calif.) grown in ESF921 insect medium (Expression System) were infected with virus stock at 1:200 virus/cell ratios, and grown for 66-68 hours at 27° C. post-infection. The infected cell culture was harvested by centrifugation at 2000 rpm for 20 min 4° C. in a SORVALL® RC12BP centrifuge. The cell pellets were stored at −70° C. until purification.
The cells were lysed using nitrogen cavitation method with a nitrogen bomb (Parr Instruments), and the lysates were clarified by centrifugation. […] The three steps column chromatography included nickel affinity resin capture (i.e. HisTrap FF crude, GE Healthcare), followed by size exclusion chromatography (i.e. HiLoad 26/600 Superdex 200 prep grade, GE Healthcare for DGK-alpha, and HiPrep 26/600 Sephacryl S 300_HR, GE Healthcare for DGK-zeta). The third step was ion exchange chromatography, and differed for the two isoforms. DGKα was polished using Q-Sepharose anion exchange chromatography (GE Healthcare). DGKζ was polished using SP Sepharose cation exchange chromatography (GE Healthcare). The proteins were delivered at concentrations of ≥2 mg/mL. The formulation buffers were identical for both proteins: 50 mM Hepes, pH 7.2, 500 mM NaCl, 10% v/v glycerol, 1 mM TCEP, and 0.5 mM EDTA.

[5] = molecular target: T2, human DGKα; experiment: DGKα LIPGLO assay (extruded liposome substrate); type: biochemical
Protocol: as §2, with “B-D-glucopyranoside. […] The lipid substrate concentrations were […], 0.25 mM DAG, and 2.75 mM PC for the extruded liposome reactions.” for “B-D-glucopyranoside.”
as §3, with “The compound inhibition studies were carried out as follows: 50 nL droplets of each test compound (top concentration 10 mM with 11 point, 3-fold dilution series for each compound) solubilized in DMSO were transferred to wells of a white 1536 well plate (Corning 3725). A 5” for “A 5”
as §4
Human DGK-alpha-TVMV-His-pFBgate and human DCK-zeta-transcript variant-2-TVMV-His-pFBgate baculovirus samples were generated using the Bac-to-Bac baculovirus expression system (Invitrogen) according to the manufacturer's protocol. The DNA used for expression of DGK-alpha and DGK-zeta have SEQ ID NOs: 1 and 3, respectively. Baculovirus amplification was achieved using infected Sf9 cells at 1:1500 virus/cell ratios, and grown for 65 hours at 27° C. post-transfection.
as §5
Full length human DGKα and DGKζ, each expressed containing a TVMV-cleavable C-terminal Hexa-His tag sequence (SEQ ID NOs: 2 and 4, respectively) and produced as described above, were purified from Sf) baculovirus-infected insect cell paste. The cells were lysed using nitrogen cavitation method with a nitrogen bomb (Parr Instruments), and the lysates were clarified by centrifugation. […] The three steps column chromatography included nickel affinity resin capture (i.e. HisTrap FF crude, GE Healthcare), followed by size exclusion chromatography (i.e. HiLoad 26/600 Superdex 200 prep grade, GE Healthcare for DGK-alpha, and HiPrep 26/600 Sephacryl S 300_HR, GE Healthcare for DGK-zeta). The third step was ion exchange chromatography, and differed for the two isoforms.

[6] = detergent/lipid micelle substrate, read-out: DGKζ IC50
[7] = extruded liposome substrate, read-out: DGKζ LIPGLO IC50

T1 sequence (Q13574 other isoform, or with tags, fused parts or gaps): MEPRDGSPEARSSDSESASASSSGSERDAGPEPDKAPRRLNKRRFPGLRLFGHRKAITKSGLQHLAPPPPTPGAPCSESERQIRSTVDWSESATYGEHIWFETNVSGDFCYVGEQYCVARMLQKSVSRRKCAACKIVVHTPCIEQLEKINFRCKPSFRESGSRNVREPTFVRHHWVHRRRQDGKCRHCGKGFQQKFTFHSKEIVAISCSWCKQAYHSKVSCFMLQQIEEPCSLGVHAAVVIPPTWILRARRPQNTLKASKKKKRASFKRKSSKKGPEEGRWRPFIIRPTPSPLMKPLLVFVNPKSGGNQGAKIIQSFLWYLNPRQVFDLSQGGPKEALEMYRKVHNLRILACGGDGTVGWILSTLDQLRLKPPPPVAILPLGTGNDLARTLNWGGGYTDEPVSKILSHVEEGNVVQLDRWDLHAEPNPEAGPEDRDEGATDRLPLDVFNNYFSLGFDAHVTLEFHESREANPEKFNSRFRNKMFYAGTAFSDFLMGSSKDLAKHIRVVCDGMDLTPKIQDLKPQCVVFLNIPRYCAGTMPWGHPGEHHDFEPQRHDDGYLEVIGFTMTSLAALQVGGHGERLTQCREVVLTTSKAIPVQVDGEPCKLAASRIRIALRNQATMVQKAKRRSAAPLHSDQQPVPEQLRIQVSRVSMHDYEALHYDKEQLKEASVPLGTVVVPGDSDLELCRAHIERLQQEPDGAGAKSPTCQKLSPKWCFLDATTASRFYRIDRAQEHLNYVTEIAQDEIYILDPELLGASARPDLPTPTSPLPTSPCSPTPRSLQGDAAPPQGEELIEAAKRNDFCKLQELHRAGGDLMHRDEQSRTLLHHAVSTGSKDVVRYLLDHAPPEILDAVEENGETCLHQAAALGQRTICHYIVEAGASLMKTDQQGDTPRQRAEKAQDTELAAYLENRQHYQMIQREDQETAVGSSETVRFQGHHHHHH

Row | Compound | IC50 [1, 6] [µM] | IC50 [2] [nM] | IC50 [3] [µM] | IC50 [4, 7] [µM] | IC50 [5] [nM] | IC50 ([1]; DGKζ IC50, detergent/lipid micelle substrate) [µM] | IC50 ([4]; DGKζ LIPGLO IC50, extruded liposome substrate) [µM]
1 | Cn1c(=O)c(C#N)c(N2CCN(Cc3ccc(Cl)cc3O)CC2)c2nc(Br)ccc21 [Example 266, 6-bromo-4-{4-[(4-chloro-2-hydroxyphenyl)methyl]piperazin-1-yl}-1-methyl-2-oxo-1,2-dihydro-1,5-naphthyridine-3-carbonitrile] | > 240 | 41 | 0.027 | 11 |  |  | 
2 | CCn1ccc2c(CN3CCN(c4c(C#N)c(=O)n(C)c5cccnc45)CC3)cccc21 [Example 334, 4-{4-[(1-ethyl-1H-indol-4-yl)methyl]piperazin-1-yl}-1-methyl-2-oxo-1,2-dihydro-1,5-naphthyridine-3-carbonitrile] |  | 540 |  | 27 | 1700 |  | 
3 | Cn1c(=O)c(C#N)c(N2CCN(C(c3ccccc3)c3ccccc3O)CC2)c2ncccc21 (centres unmarked) [Example 349, 4-{4-[(2-hydroxyphenyl)(phenyl)methyl]piperazin-1-yl}-1-methyl-2-oxo-1,2-dihydro-1,5-naphthyridine-3-carbonitrile] |  | 1400 |  | 32 | 1300 |  | 
4 | C#CCn1c(=O)c([N+](=O)[O-])c(N2CCN(C(c3ccc(F)cc3)c3ccccc3OC)CC2)c2nc(C#N)ccc21 (single isomer, unassigned) [Example 130, 8-(4-((4-fluorophenyl)(2-methoxyphenyl)methyl)piperazin-1-yl)-7-nitro-6-oxo-5-(prop-2-yn-1-yl)-5,6-dihydro-1,5-naphthyridine-2-carbonitrile] | 1.9 | 19 | 30 | 0.31 |  |  | 
5 | Cn1c(=O)c(C#N)c(N2CCN(C(c3ccc(F)cc3)c3ccc(F)cc3)CC2)c2ncccc21 [Example 347, 4-{4-[bis(4-fluorophenyl)methyl]piperazin-1-yl}-1-methyl-2-oxo-1,2-dihydro-1,5-naphthyridine-3-carbonitrile] |  | 1200 |  |  | 2600 |  | 
6 | C#CCn1c(=O)c([N+](=O)[O-])c(N2CCN(C(c3ccccc3)c3ccccc3)CC2)c2ncccc21 [Example 165, 4-(4-benzhydrylpiperazin-1-yl)-3-nitro-1-(prop-2-yn-1-yl)-1,5-naphthyridin-2(1H)-one] | 92 |  | 3.4 | 4.1 | 2800 |  | 
7 | Cn1c(=O)c(C#N)c(N2CCN(Cc3ccc(OC(F)(F)F)cc3O)CC2)c2nc(Cl)ccc21 [Example 381, 6-chloro-4-(4-{[2-hydroxy-4-(trifluoromethoxy)phenyl]methyl}piperazin-1-yl)-1-methyl-2-oxo-1,2-dihydro-1,5-naphthyridine-3-carbonitrile] | > 240 |  |  | 27 |  |  | 
8 | COc1cc(F)ccc1C(c1ccc(F)cc1OC)N1CCN(c2c(C#N)c(=O)n(C)c3ccc(C#N)nc23)CC1 [Example 409, 8-{4-[bis(4-fluoro-2-methoxyphenyl)methyl]piperazin-1-yl}-5-methyl-6-oxo-5,6-dihydro-1,5-naphthyridine-2,7-dicarbonitrile] |  |  |  | 0.95 | > 240000 |  | 
9 | CC(c1ccc(F)cc1)N1CCN(c2c(C#N)c(=O)n(CC3CC3)c3ccc(Br)nc23)CC1 (single isomer, unassigned) [Example 163, 6-bromo-1-(cyclopropylmethyl)-4-(4-(1-(4-fluorophenyl)ethyl)piperazin-1-yl)-2-oxo-1,2-dihydro-1,5-naphthyridine-3-carbonitrile] |  |  | > 240 |  | 110000 | > 240 | 110
10 | COc1ncccc1C(c1ccc(F)cc1)N1CCN(c2c(C#N)c(=O)n(C)c3ccc(C)nc23)CC1 (centres unmarked) [Example 254, 4-{4-[(4-fluorophenyl)(2-methoxypyridin-3-yl)methyl]piperazin-1-yl}-1,6-dimethyl-2-oxo-1,2-dihydro-1,5-naphthyridine-3-carbonitrile] |  |  |  | 16 | 1700 |  | 
11 | COc1cccnc1C(c1ccc(F)cc1)N1CCN(c2c(C#N)c(=O)n(C)c3ccc(C)nc23)CC1 (centres unmarked) [Example 255, 4-{4-[(4-fluorophenyl)(3-methoxypyridin-2-yl)methyl]piperazin-1-yl}-1,6-dimethyl-2-oxo-1,2-dihydro-1,5-naphthyridine-3-carbonitrile] |  |  |  | 21 | 1400 |  | 
12 | Cc1ccc(C(c2ccccc2)N2CCN(c3c(C#N)c(=O)n(C)c4ccc(C#N)nc34)CC2)cc1 (centres unmarked) [Example 408, 5-methyl-8-{4-[(4-methylphenyl)(phenyl)methyl]piperazin-1-yl}-6-oxo-5,6-dihydro-1,5-naphthyridine-2,7-dicarbonitrile] |  |  |  | 1.1 | 9000 |  | 
13 | Cc1ccc(C(c2ccccc2)N2CCN(c3c(C#N)c(=O)n(C)c4ccc(Br)nc34)CC2)cc1 (centres unmarked) [Example 431, 6-bromo-1-methyl-4-{4-[(4-methylphenyl)(phenyl)methyl]piperazin-1-yl}-2-oxo-1,2-dihydro-1,5-naphthyridine-3-carbonitrile] |  |  |  | 9 | 9000 |  | 
14 | Cc1ccc2c(n1)c(N1CCN(C(c3ccc(F)cc3)C3CC3)CC1)c(C#N)c(=O)n2C (centres unmarked) [Example 250, 4-{4-[cyclopropyl(4-fluorophenyl)methyl]piperazin-1-yl}-1,6-dimethyl-2-oxo-1,2-dihydro-1,5-naphthyridine-3-carbonitrile] |  |  |  | > 240 | 5100 |  | 

Source: patent US11866430B2, “Naphthyridinone compounds useful as T cell activators” (priority 2018, dated 2024)
